In assay [1] the target is T1, CLR fused to EYFP and RAMP2 fused to ECFP (Homo sapiens, UniProt O60895+Q16602).
T1 construct: EYFP; ECFP; expressed in transfected cells; host or cells: HEK-293 cells, transient co-transfection
In words: cAMP assay (CRE luciferase reporter, HEK-293 cells transiently co-transfected with CLR and RAMP2). The assay is classed as cell-based. To be noted: Table 2, cAMP assay; HEK-293, CLR/RAMP2, CRE luciferase, 3 h stimulation, normalized to [G^14]ADM(14-52). Put shortly: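 HEK-293 cells transiently co-transfected with CLR-EYFP, RAMP2-ECFP and a CRE-luc2P luciferase reporter were stimulated with ligands (eight concentrations, triplicate) for 3 h at 37 °C. Luminescence was corrected to 5 µM forskolin, normalized to [G^14]ADM(14-52) standard, and fitted by non-linear regression to dose-response curves.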

The target in assay [2] is T2, human adrenomedullin-receptor (Homo sapiens, UniProt O60895+Q16602).
T2 construct: expressed in transfected cells; host or cells: CHO (Chinese hamster ovary) recombinant reporter cell line with aequorin
In words: Tests on a recombinant adrenomedullin-receptor reporter cell (CHO, aequorin luminescence). To be noted: Table 1, CHO cell line carrying the human adrenomedullin-receptor. It counts as cell-based. As to the method:
Activation of the receptor by ligands was measured by aequorin luminescence. Construction of the cell line and measurement procedure has been described in detail [Wunder F., Rebmann A., Geerts A, and Kalthof B., Mol Pharmacol, 73, 1235-1243 (2008)]. In brief: Cells were seeded on opaque 384-well microtiter plates at a density of 4000 cells/well and were grown for 24 h. After removal of culture medium, cells were loaded for 3 h with 0.6 μg/ml coelenterazine in Ca^2+-free Tyrode solution (130 mM sodium chloride, 5 mM potassium chloride, 20 mM HEPES (4-(2-hydroxyethyl)-1-piperazineethanesulfonic acid), 1 mM magnesium chloride, and 4.8 mM sodium hydrogen carbonate, pH 7.4) supplemented with 0.2 mM 3-Isobutyl-1-methylxanthine (IBMX) in a cell culture incubator. Examples were added for 6 min in calcium^2+-free Tyrode solution containing 0.1% bovine serum albumin. Immediately before adding calcium^2+ to a final concentration of 3 mM measurement of the aequorin luminescence was started by use of a suitable luminometer. Luminescence was measured for 60 s. In a typical experiment compounds were tested in a concentration range of 1×10^−13 to 3×10^−6 M.

Molecules are shown by their SMILES. Numbered stars: 1 amine (or outer) side, 2 acyl side, 3 side chain; on linkers, the order of the positions; unused ones are H or OH. Bridge positions count the residues as written; N and C are the ends. Square brackets hold non-standard residues; d marks the D form. Peptide text beside a SMILES is read from it. * marks the point of attachment. Abu(4-yl) = O=C([C@H](CC[*:3])N[*:1])[*:2]; Palmitoyl = CCCCCCCCCCCCCCCC(=O)*; Orn = NCCC[C@H](N)C(=O)O

Four molecules from patent publication US20180022780A1, “STABILIZATION ADRENOMEDULLIN DERIVATIVES AND USE THEREOF” (priority 2014, published 2018) can be followed below.

Broadly, the EC50 is the concentration needed to bring the measured effect to its halfway point.

T1 sequence (Q16602 23-461): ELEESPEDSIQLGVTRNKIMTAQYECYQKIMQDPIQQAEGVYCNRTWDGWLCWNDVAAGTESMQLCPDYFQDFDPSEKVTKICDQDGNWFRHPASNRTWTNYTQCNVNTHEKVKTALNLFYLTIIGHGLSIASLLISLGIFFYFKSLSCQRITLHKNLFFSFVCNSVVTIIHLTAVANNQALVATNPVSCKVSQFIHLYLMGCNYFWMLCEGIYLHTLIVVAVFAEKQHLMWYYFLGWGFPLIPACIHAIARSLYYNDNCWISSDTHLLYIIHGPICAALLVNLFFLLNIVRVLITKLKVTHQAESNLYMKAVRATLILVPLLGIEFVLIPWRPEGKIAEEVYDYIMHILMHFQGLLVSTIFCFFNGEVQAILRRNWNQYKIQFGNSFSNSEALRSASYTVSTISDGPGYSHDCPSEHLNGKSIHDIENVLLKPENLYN
T1 sequence (O60895 43-175): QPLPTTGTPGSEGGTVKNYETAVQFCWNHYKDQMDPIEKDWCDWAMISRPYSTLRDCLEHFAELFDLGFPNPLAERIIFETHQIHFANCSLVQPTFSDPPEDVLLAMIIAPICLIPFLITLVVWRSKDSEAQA
T2 sequence (Q16602 23-461): as the sequence (Q16602 23-461) above
T2 sequence (O60895 43-175): as the sequence (O60895 43-175) above

Take `CC[C@H](C)[C@H](NC(=O)[C@H](CCC(N)=O)NC(=O)[C@H](Cc1c[nH]cn1)NC(=O)[C@H](C)NC(=O)[C@H](CC(C)C)NC(=O)[C@H](CCCCN)NC(=O)[C@H](CCC(N)=O)NC(=O)[C@@H](NC(=O)[C@@H](NC(=O)[C@@H]1CCCC[C@H](NC(=O)CNC(=O)CN)C(=O)N[C@@H](CCCNC(=N)N)C(=O)N[C@@H](Cc2ccccc2)C(=O)NCC(=O)N[C@@H]([C@@H](C)O)C(=O)N1)[C@@H](C)O)C(C)C)C(=O)N[C@@H](Cc1ccc(O)cc1)C(=O)N[C@@H](CCC(N)=O)C(=O)N[C@@H](Cc1ccccc1)C(=O)N[C@H](C(=O)N[C@@H](CC(=O)O)C(=O)N[C@@H](CCCCN)C(=O)N[C@@H](CC(=O)O)C(=O)N[C@@H](CCCCN)C(=O)N[C@@H](CC(=O)O)C(=O)N[C@@H](CC(N)=O)C(=O)N[C@H](C(=O)N[C@@H](C)C(=O)N1CCC[C@H]1C(=O)N[C@@H](CCCNC(=N)N)C(=O)N[C@@H](CO)C(=O)N[C@@H](CCCCN)C(=O)N[C@H](C(=O)N[C@@H](CO)C(=O)N1CCC[C@H]1C(=O)N[C@@H](CCC(N)=O)C(=O)NCC(=O)N[C@@H](Cc1ccc(O)cc1)C(N)=O)[C@@H](C)CC)C(C)C)[C@@H](C)O` [Example 17, ((2S,5S,11S,14S,19S)-19-(2-(2-aminoacetamido)acetamido)-5-benzyl-2-(3-guanidinopropyl)-11-((R)-1-hydroxyethyl)-3,6,9,12,20-pentaoxo-1,4,7,10,13-pentaazacycloicosane-14-carbonyl)-L threonyl-ADM(22-52)]: the 50% effective concentration (EC50) in assay [1] and in assay [2] was more than 1 µM throughout.
As for `CCCCCCCCCCCCCCCC(=O)NCCCC[C@H](N)C(=O)NCC(=O)N[C@H]1CCC(=O)NCCCC[C@@H](C(=O)N[C@H](C(=O)N[C@H](C(=O)N[C@@H](CCC(N)=O)C(=O)N[C@@H](CCCCN)C(=O)N[C@@H](CC(C)C)C(=O)N[C@@H](C)C(=O)N[C@@H](Cc2c[nH]cn2)C(=O)N[C@@H](CCC(N)=O)C(=O)N[C@H](C(=O)N[C@@H](Cc2ccc(O)cc2)C(=O)N[C@@H](CCC(N)=O)C(=O)N[C@@H](Cc2ccccc2)C(=O)N[C@H](C(=O)N[C@@H](CC(=O)O)C(=O)N[C@@H](CCCCN)C(=O)N[C@@H](CC(=O)O)C(=O)N[C@@H](CCCCN)C(=O)N[C@@H](CC(=O)O)C(=O)N[C@@H](CC(N)=O)C(=O)N[C@H](C(=O)N[C@@H](C)C(=O)N2CCC[C@H]2C(=O)N[C@@H](CCCNC(=N)N)C(=O)N[C@@H](CO)C(=O)N[C@@H](CCCCN)C(=O)N[C@H](C(=O)N[C@@H](CO)C(=O)N2CCC[C@H]2C(=O)N[C@@H](CCC(N)=O)C(=O)NCC(=O)N[C@@H](Cc2ccc(O)cc2)C(N)=O)[C@@H](C)CC)C(C)C)[C@@H](C)O)[C@@H](C)CC)C(C)C)[C@@H](C)O)NC(=O)[C@H]([C@@H](C)O)NC(=O)CNC(=O)[C@H](Cc2ccccc2)NC(=O)[C@H](CCCNC(=N)N)NC1=O` [Example 12, ((2S,5S,11S,14S,23S)-23-(2-((S)-2-amino-6-palmitamidohexanamido)acetamido)-5-benzyl-2-(3-guanidinopropyl)-11-((R)-1-hydroxyethyl)-3,6,9,12,20,24-hexaoxo-1,4,7,10,13,19-hexaazacyclotetracosane-14-carbonyl)-L-threonyl-ADM(22-52)] (H-K(Palmitoyl)GERFGTKTVQKLAHQIYQFTDKDKDNVAPRSKISPQGY-NH2; lactam 3-8), the EC50 in assay [1] turned out to be 0.029 µM.
On the same count and under the same terms, next, `CC[C@H](C)[C@H](NC(=O)[C@H](CCC(N)=O)NC(=O)[C@H](Cc1c[nH]cn1)NC(=O)[C@H](C)NC(=O)[C@H](CC(C)C)NC(=O)[C@H](CCCCN)NC(=O)[C@H](CCC(N)=O)NC(=O)[C@@H](NC(=O)[C@@H](NC(=O)[C@@H]1CCCNC(=O)C[C@H](NC(=O)CNC(=O)CN)C(=O)N[C@@H](CCCNC(=N)N)C(=O)N[C@@H](Cc2ccccc2)C(=O)NCC(=O)N[C@@H]([C@@H](C)O)C(=O)N1)[C@@H](C)O)C(C)C)C(=O)N[C@@H](Cc1ccc(O)cc1)C(=O)N[C@@H](CCC(N)=O)C(=O)N[C@@H](Cc1ccccc1)C(=O)N[C@H](C(=O)N[C@@H](CC(=O)O)C(=O)N[C@@H](CCCCN)C(=O)N[C@@H](CC(=O)O)C(=O)N[C@@H](CCCCN)C(=O)N[C@@H](CC(=O)O)C(=O)N[C@@H](CC(N)=O)C(=O)N[C@H](C(=O)N[C@@H](C)C(=O)N1CCC[C@H]1C(=O)N[C@@H](CCCNC(=N)N)C(=O)N[C@@H](CO)C(=O)N[C@@H](CCCCN)C(=O)N[C@H](C(=O)N[C@@H](CO)C(=O)N1CCC[C@H]1C(=O)N[C@@H](CCC(N)=O)C(=O)NCC(=O)N[C@@H](Cc1ccc(O)cc1)C(N)=O)[C@@H](C)CC)C(C)C)[C@@H](C)O` [Example 8, ((2S,5S,11S,14S,21S)-21-(2-(2-aminoacetamido)acetamido)-5-benzyl-2-(3-guanidinopropyl)-11-((R)-1-hydroxyethyl)-3,6,9,12,19,22-hexaoxo-1,4,7,10,13,18-hexaazacyclodocosane-14-carbonyl)-L-threonyl-ADM(22-52)] (H-GGDRFGT[Orn]TVQKLAHQIYQFTDKDKDNVAPRSKISPQGY-NH2; lactam 3-8): 0.02 µM.
Same read-out and setting: the figure for `CC[C@H](C)[C@H](NC(=O)[C@H](CCC(N)=O)NC(=O)[C@H](Cc1c[nH]cn1)NC(=O)[C@H](C)NC(=O)[C@H](CC(C)C)NC(=O)[C@H](CCCCN)NC(=O)[C@H](CCC(N)=O)NC(=O)[C@@H](NC(=O)[C@@H](NC(=O)[C@@H]1CCSC[C@H](NC(=O)CNC(=O)CN)C(=O)N[C@@H](CCCNC(=N)N)C(=O)N[C@@H](Cc2ccccc2)C(=O)NCC(=O)N[C@@H]([C@@H](C)O)C(=O)N1)[C@@H](C)O)C(C)C)C(=O)N[C@@H](Cc1ccc(O)cc1)C(=O)N[C@@H](CCC(N)=O)C(=O)N[C@@H](Cc1ccccc1)C(=O)N[C@H](C(=O)N[C@@H](CC(=O)O)C(=O)N[C@@H](CCCCN)C(=O)N[C@@H](CC(=O)O)C(=O)N[C@@H](CCCCN)C(=O)N[C@@H](CC(=O)O)C(=O)N[C@@H](CC(N)=O)C(=O)N[C@H](C(=O)N[C@@H](C)C(=O)N1CCC[C@H]1C(=O)N[C@@H](CCCNC(=N)N)C(=O)N[C@@H](CO)C(=O)N[C@@H](CCCCN)C(=O)N[C@H](C(=O)N[C@@H](CO)C(=O)N1CCC[C@H]1C(=O)N[C@@H](CCC(N)=O)C(=O)NCC(=O)N[C@@H](Cc1ccc(O)cc1)C(N)=O)[C@@H](C)CC)C(C)C)[C@@H](C)O` [Example 15, ((4S,7S,13S,16S,19R)-19-(2-(2-aminoacetamido)acetamido)-13-benzyl-16-(3-guanidinopropyl)-7-((R)-1-hydroxyethyl)-6,9,12,15,18-pentaoxo-1-thia-5,8,11,14,17-pentaazacycloicosane-4-carbonyl)-L-threonyl-ADM(22-52)] (H-GGCRFGT[Abu(4-yl)]TVQKLAHQIYQFTDKDKDNVAPRSKISPQGY-NH2; thioether 3-8) is 0.0033 µM.
